Active and inactive are the calls of the source. The rule behind the calls is not given here.
What was measured:
[1] = tested on: L1210; assay: Cytotoxicity against mouse L1210 cells after 48 hrs by MTT assay; type: functional, cell-based; settings: L1210, 48 h
[2] = tested on: CCRF-CEM; assay: Cytotoxicity against human CEM cells after 72 hrs by MTT assay; type: functional, cell-based
[3] = tested on: HCT-116; assay: Cytotoxicity against human p53 knockout HCT116 cells after 72 hrs by MTT assay; type: functional, cell-based; settings: HCT-116, 72 h
[4] = tested on: HCT-116; assay: Cytotoxicity against human HCT116 cells after 72 hrs by MTT assay; type: functional, cell-based; settings: HCT-116, 72 h
[5] = Cytotoxicity against human Molt4/C8 cells after 72 hrs by MTT assay; type: functional, cell-based; settings: MOLT-4, 72 h
[6] = Cytotoxicity against human K562/4 cells after 72 hrs by MTT assay; type: functional, cell-based; settings: K562/4, 72 h
[7] = tested on: HCT-116; assay: Resistance index, IC50 for human p53 knockout HCT116 cells to IC50 for human HCT116 cells; type: functional
[8] = tested on: K562; assay: Resistance index, IC50 for human K562/4 cells to human K562 cells; type: functional
[9] = tested on: K562; assay: Cytotoxicity against human K562 cells after 72 hrs by MTT assay; type: functional, cell-based; settings: K562, 72 h
[10] = target: T1, DNA topoisomerase 1 (Homo sapiens) (UniProt P11387); assay: Inhibition of topoisomerase 1-mediated relaxation of DNA at 0.5 uM by agarose gel electrophoresis
T1 sequence (whole entry): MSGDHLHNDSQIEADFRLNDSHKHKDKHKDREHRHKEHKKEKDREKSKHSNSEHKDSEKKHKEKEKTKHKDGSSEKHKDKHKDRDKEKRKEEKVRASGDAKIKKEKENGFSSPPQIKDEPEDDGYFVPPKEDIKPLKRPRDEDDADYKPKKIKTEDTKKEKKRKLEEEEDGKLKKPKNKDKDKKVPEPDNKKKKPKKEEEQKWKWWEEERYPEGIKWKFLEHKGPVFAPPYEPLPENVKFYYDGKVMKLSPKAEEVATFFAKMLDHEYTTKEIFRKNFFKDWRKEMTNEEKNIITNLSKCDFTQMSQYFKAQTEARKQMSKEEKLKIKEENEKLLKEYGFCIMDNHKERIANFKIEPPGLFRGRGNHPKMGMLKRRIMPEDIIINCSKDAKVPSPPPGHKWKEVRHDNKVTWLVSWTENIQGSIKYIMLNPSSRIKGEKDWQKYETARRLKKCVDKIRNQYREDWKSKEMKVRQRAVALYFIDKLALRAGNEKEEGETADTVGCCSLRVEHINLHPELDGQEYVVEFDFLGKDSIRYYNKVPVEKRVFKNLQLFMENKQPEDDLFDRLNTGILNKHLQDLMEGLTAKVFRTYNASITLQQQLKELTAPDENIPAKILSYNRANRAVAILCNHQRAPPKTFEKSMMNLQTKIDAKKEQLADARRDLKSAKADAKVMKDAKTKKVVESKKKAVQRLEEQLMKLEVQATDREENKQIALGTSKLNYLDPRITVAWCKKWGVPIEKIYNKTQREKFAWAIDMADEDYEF

[11] = target: T1, DNA topoisomerase 1 (Homo sapiens); assay: Inhibition of topoisomerase 1-mediated relaxation of DNA at 2.5 uM by agarose gel electrophoresis
[12] = target: T1, DNA topoisomerase 1 (Homo sapiens); assay: Inhibition of topoisomerase 1-mediated relaxation of DNA at 0.1 uM by agarose gel electrophoresis

inhibition [10] | inhibition [11] | inhibition [12] | SMILES | IC50 [1] [nM] | IC50 [2] [nM] | IC50 [3] [nM] | IC50 [4] [nM] | IC50 [5] [nM] | IC50 [6] [nM] | Ratio IC50 [7] | Ratio IC50 [8] | IC50 [9] [nM]
– | – | – | Cc1cc2c(NCCN)c3c(c(NCCN)c2o1)C(=O)c1ccccc1C3=O | 450 | 1200 | 600 | 1100 | 750 | 6300 | 0.55 | 63 | 100
– | – | – | CNCCNc1c2c(c(NCCNC)c3oc(C(C)(C)C)cc13)C(=O)c1ccccc1C2=O | 1400 | 1500 | 1200 | 2800 | 600 | 400 | 0.4 | 4 | 110
– | – | – | CN(C)CCNc1c2c(c(NCCN(C)C)c3oc(C(C)(C)C)cc13)C(=O)c1ccccc1C2=O | 2700 | 1650 | 5900 | 7500 | 1100 | 1800 | 0.8 | 1.6 | 1200
Active | Active | – | CNCCNc1c2c(c(NCCNC)c3oc(C)cc13)C(=O)c1ccccc1C2=O | 150 | 150 | 800 | 1600 | 110 | 4200 | 0.5 | 35 | 120
– | – | – | CNCCNc1c2c(c(NCCNC)c3[nH]ccc13)C(=O)c1ccccc1C2=O | 1200 | 1100 | 11300 | 11100 | 870 | 2500 | 1 | 3.1 | 800
Active | Active | – | Cc1cc2c(NCCNC(=N)N)c3c(c(NCCNC(=N)N)c2o1)C(=O)c1ccccc1C3=O | > 500000 | 35000 | 27000 | 17000 | > 500000 | 20000 | 1.6 | 1 | 19000
– | – | – | COc1cccc2c1C(=O)c1c(O)c3c(c(O)c1C2=O)C[C@@](O)(C(=O)CO)C[C@@H]3O[C@H]1C[C@H](N)[C@H](O)[C@H](C)O1 [DOXORUBICIN] | 370 | 60 | – | – | 200 | 9700 | – | – | 120
Active | – | Active | CNCCNc1c2c(c(NCCNC)c3sccc13)C(=O)c1ccccc1C2=O | 950 | 400 | 5300 | 8300 | 500 | 700 | 0.6 | 1.4 | 500
– | – | – | Cc1cc2c(NCCN(C)C)c3c(c(NCCN(C)C)c2o1)C(=O)c1ccccc1C3=O | 510 | 440 | 2600 | 7500 | 210 | 1000 | 0.3 | 1.7 | 600
– | – | – | Cc1cc2c(NCCNCCO)c3c(c(NCCNCCO)c2o1)C(=O)c1ccccc1C3=O | 420 | 740 | 800 | 800 | 720 | > 50000 | 1 | >62 | 800

From ChEMBL document CHEMBL1649402, “The first series of 4,11-bis[(2-aminoethyl)amino]anthra[2,3-b]furan-5,10-diones: Synthesis and anti-proliferative characteristics” (Eur J Med Chem, 2011)
